Results from patent publication US20260356819A1, “OXOISOINDOLINYL-SUBSTITUTED […] DERIVATIVE AND USE THEREOF” (GLUETACS THERAPEUTICS (SHANGHAI) CO., LTD., priority 2023, published 2026).

Experiments:
Format in all cases: cell-based
Conditions in all cases: compounds at 50 nM and 500 nM
[1] = target: T1, IKZF1 (Homo sapiens, UniProt Q13422+Q96SW2); test: Western blot degradation of IKZF1 in hPBMCs (24 h)
T1 construct: The supernatant was aspirated as the extracted total cell protein; endogenous in cells; host or cells: human peripheral blood mononuclear cells (hPBMCs)
T1 sequence (Q13422 whole entry): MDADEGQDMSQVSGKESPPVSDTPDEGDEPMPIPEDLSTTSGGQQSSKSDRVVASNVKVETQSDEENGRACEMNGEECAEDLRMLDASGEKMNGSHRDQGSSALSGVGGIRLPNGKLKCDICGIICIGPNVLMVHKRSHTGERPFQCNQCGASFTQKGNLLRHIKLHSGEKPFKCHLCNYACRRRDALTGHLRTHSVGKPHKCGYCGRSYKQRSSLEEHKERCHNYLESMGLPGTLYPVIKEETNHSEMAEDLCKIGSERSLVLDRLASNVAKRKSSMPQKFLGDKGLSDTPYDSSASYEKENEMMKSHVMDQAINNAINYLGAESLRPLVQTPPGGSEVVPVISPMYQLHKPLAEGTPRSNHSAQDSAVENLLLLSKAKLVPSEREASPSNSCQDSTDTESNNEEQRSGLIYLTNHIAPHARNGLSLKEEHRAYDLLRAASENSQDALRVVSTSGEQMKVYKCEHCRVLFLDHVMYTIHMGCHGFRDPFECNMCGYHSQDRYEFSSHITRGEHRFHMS
T1 sequence (Q96SW2 whole entry): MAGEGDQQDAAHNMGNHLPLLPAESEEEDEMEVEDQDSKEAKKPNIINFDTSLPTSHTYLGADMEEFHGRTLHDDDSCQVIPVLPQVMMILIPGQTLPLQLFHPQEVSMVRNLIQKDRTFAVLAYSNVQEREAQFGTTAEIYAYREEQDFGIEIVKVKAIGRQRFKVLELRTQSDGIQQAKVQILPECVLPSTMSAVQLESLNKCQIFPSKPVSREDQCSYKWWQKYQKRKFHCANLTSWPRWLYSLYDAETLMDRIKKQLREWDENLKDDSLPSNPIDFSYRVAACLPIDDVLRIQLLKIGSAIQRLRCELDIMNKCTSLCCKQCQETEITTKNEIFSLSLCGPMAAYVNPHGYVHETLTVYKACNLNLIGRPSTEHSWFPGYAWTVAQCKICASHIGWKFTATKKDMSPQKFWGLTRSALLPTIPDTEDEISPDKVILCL
T1 sequence (Q16531 whole entry partner): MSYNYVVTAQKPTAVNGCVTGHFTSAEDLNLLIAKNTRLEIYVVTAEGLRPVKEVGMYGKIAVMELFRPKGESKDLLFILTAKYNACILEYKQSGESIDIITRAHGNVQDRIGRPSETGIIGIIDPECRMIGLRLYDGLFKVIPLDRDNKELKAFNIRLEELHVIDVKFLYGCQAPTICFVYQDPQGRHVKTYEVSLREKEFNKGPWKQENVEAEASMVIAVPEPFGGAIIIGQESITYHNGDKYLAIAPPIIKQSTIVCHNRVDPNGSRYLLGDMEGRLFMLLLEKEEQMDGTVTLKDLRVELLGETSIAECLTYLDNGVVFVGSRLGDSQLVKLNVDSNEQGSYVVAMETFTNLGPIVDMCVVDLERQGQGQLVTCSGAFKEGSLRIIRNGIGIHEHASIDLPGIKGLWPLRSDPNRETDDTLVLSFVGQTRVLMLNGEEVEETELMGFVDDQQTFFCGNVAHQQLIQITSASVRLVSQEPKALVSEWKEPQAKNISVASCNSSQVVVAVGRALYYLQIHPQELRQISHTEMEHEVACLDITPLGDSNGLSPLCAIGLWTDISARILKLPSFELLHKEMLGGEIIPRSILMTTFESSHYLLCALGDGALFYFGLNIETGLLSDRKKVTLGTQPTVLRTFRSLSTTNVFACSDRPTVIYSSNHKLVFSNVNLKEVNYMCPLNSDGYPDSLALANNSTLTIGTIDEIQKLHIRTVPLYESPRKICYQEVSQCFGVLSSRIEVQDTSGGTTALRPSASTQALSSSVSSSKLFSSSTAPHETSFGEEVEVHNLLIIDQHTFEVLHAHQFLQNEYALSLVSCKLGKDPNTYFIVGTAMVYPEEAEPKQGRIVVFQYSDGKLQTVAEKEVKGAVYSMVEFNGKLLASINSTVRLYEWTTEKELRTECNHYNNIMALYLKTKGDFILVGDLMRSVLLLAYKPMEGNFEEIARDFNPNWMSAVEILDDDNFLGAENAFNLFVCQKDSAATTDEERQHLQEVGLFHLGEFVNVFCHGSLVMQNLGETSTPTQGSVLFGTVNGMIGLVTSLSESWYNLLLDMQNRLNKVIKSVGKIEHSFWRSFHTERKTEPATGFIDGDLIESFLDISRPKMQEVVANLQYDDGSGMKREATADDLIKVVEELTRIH
In short: (§1)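 PBMC Western blot, 24 h treatment; test levels 50 nM and 500 nM. Band density ÷ internal control, normalised → % remaining; degradation (%) = 1 − remaining.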

[2] = target: T2, IKZF2 (Homo sapiens, UniProt Q96SW2+Q9UKS7); test: Western blot degradation of IKZF2 in hPBMCs (24 h)
T2 construct: The supernatant was aspirated as the extracted total cell protein; endogenous in cells; host or cells: human peripheral blood mononuclear cells (hPBMCs)
T2 sequence (Q9UKS7 whole entry): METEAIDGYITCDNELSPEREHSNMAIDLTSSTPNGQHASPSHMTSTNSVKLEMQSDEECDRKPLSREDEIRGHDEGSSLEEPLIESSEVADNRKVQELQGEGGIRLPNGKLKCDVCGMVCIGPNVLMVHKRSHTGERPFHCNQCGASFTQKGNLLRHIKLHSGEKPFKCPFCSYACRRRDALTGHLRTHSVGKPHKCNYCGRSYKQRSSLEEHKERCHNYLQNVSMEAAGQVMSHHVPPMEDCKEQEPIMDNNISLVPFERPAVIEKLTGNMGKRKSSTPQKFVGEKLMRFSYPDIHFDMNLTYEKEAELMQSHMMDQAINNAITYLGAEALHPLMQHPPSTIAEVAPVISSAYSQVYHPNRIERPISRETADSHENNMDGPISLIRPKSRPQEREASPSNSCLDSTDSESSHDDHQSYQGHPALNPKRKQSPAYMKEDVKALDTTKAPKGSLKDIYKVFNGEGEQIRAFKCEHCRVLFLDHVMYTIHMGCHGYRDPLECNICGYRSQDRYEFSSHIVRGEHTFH
T2 sequence (Q96SW2 whole entry): as the sequence (Q96SW2 whole entry) above
T2 sequence (Q16531 whole entry partner): as the sequence (Q16531 whole entry partner) above
In short: as §1

[3] = target: T3, GSPT1 (Homo sapiens, UniProt P15170+Q96SW2); test: Western blot degradation of GSPT1 in hPBMCs (24 h)
T3 construct: The supernatant was aspirated as the extracted total cell protein; endogenous in cells; host or cells: human peripheral blood mononuclear cells (hPBMCs)
In short: as §1

[4] = target: T4, CK1α (Homo sapiens, UniProt P48729+Q96SW2); test: Western blot degradation of CK1α in hPBMCs (24 h)
T4 construct: The supernatant was aspirated as the extracted total cell protein; endogenous in cells; host or cells: human peripheral blood mononuclear cells (hPBMCs)
T4 sequence (P48729 whole entry): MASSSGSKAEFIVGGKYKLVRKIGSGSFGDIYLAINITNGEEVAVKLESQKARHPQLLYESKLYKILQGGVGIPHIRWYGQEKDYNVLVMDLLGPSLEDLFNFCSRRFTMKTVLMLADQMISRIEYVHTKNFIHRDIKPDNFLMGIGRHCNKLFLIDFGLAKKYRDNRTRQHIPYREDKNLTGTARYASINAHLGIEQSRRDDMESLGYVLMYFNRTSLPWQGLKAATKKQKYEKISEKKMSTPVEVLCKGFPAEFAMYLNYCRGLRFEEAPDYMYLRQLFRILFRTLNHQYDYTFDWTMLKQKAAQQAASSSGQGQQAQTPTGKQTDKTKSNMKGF
T4 sequence (Q96SW2 whole entry): as the sequence (Q96SW2 whole entry) above
T4 sequence (Q16531 whole entry partner): as the sequence (Q16531 whole entry partner) above
In short: as §1

[5] = target: T5, WEE1 (Homo sapiens, UniProt P30291+Q96SW2); test: Western blot degradation of WEE1 in hPBMCs (24 h)
T5 construct: The supernatant was aspirated as the extracted total cell protein; endogenous in cells; host or cells: human peripheral blood mononuclear cells (hPBMCs)
T5 sequence (P30291 whole entry): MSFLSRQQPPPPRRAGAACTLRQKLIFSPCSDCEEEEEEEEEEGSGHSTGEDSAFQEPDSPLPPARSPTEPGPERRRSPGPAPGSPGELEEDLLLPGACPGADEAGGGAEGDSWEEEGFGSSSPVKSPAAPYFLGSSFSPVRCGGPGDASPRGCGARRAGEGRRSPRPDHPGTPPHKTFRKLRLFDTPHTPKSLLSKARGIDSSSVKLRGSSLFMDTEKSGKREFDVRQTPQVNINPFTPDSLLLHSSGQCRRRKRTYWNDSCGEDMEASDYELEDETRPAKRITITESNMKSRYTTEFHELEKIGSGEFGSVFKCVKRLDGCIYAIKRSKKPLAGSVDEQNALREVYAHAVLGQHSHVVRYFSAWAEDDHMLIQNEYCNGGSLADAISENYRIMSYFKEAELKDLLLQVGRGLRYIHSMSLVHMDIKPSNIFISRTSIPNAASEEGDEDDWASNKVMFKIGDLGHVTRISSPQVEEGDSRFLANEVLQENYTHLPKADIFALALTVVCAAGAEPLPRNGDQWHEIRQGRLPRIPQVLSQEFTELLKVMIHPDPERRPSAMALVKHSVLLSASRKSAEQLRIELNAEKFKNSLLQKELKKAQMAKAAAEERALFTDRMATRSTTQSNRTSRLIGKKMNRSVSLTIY
T5 sequence (Q96SW2 whole entry): as the sequence (Q96SW2 whole entry) above
T5 sequence (Q16531 whole entry partner): as the sequence (Q16531 whole entry partner) above
In short: as §1

[6] = target: T6, IKZF3 (Homo sapiens, UniProt Q96SW2+Q9UKT9); test: Western blot degradation of IKZF3 in hPBMCs (24 h)
T6 construct: The supernatant was aspirated as the extracted total cell protein; endogenous in cells; host or cells: human peripheral blood mononuclear cells (hPBMCs)
T6 sequence (Q9UKT9 whole entry): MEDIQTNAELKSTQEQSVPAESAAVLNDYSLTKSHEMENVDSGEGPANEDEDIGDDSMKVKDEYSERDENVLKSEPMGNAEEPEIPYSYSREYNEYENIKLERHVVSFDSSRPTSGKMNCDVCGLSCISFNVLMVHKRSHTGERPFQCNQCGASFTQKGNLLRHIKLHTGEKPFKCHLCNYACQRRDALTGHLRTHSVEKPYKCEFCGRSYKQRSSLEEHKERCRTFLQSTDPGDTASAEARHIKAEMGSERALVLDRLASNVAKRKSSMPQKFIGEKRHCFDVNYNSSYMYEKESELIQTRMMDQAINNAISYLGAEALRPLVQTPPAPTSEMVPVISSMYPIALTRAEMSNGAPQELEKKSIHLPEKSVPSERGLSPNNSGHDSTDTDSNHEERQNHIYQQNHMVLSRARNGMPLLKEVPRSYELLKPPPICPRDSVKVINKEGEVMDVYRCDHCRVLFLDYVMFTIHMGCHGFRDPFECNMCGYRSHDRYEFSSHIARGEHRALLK
T6 sequence (Q96SW2 whole entry): as the sequence (Q96SW2 whole entry) above
T6 sequence (Q16531 whole entry partner): as the sequence (Q16531 whole entry partner) above
In short: as §1

Structure (SMILES)	IKZF1 substrate protein remaining % [1]	IKZF2 substrate protein remaining % [2]	GSPT1 substrate protein remaining % [3]	CK1α substrate protein remaining % [4]	WEE1 substrate protein remaining % [5]	IKZF3 substrate protein remaining % [6]
O=C1CCN(N2Cc3cc(CN4C5CCC4CN(C(c4ccccc4)c4ccccc4)C5)ccc3C2=O)C(=O)N1 [GT-06454, 1-(5-((3-benzhydryl-3,8-diazabicyclo[3.2.1]octan-8-yl)methyl)-1-oxoisoindolin-2-yl)dihydropyrimidine-2,4(1H,3H)-dione]	B (80%< substrate protein remaining % ≤100%)	B (80%< substrate protein remaining % ≤100%)	B (80%< substrate protein remaining % ≤100%)	B (80%< substrate protein remaining % ≤100%)	A (0% ≤ substrate protein remaining % ≤80%)	B (80%< substrate protein remaining % ≤100%)
O=C1CCN(N2C(=O)c3ccc(CN4C5CCC4CN(C(c4ccccc4)c4ccccc4)C5)cc3C2=O)C(=O)N1 [GT-06455, 5-((3-benzhydryl-3,8-diazabicyclo[3.2.1]octan-8-yl)methyl)-2-(2,4-dioxotetrahydropyrimidin-1(2H)-yl)isoindoline-1,3-dione]	B (80%< substrate protein remaining % ≤100%)	B (80%< substrate protein remaining % ≤100%)	B (80%< substrate protein remaining % ≤100%)	B (80%< substrate protein remaining % ≤100%)	A (0% ≤ substrate protein remaining % ≤80%)	B (80%< substrate protein remaining % ≤100%)
CC1(C)CCC(CN2CC3CC(C2)N3Cc2ccc3c(c2)C(=O)N(N2CCC(=O)NC2=O)C3=O)=C(c2ccc(Cl)cc2)C1 [GT-06457, 5-((3-((4′-chloro-5,5-dimethyl-3,4,5,6-tetrahydro-[1,1′-biphenyl]-2-yl)methyl)-3,6-diazabicyclo[3.1.1]heptan-6-yl)methyl)-2-(2,4-dioxotetrahydropyrimidin-1(2H)-yl)isoindoline-1,3-dione]	A (0% ≤ substrate protein remaining % ≤80%)	A (0% ≤ substrate protein remaining % ≤80%)	A (0% ≤ substrate protein remaining % ≤80%)	A (0% ≤ substrate protein remaining % ≤80%)	A (0% ≤ substrate protein remaining % ≤80%)	A (0% ≤ substrate protein remaining % ≤80%)
CC1(C)CCC(CN2C3CC2CN(Cc2ccc4c(c2)CN(N2CCC(=O)NC2=O)C4=O)C3)=C(c2ccc(Cl)cc2)C1 [GT-06458, 1-(5-((6-((4′-chloro-5,5-dimethyl-3,4,5,6-tetrahydro-[1,1′-biphenyl]-2-yl)methyl)-3,6-diazabicyclo[3.1.1]heptan-3-yl)methyl)-1-oxoisoindolin-2-yl)dihydropyrimidine-2,4(1H,3H)-dione]	A (0% ≤ substrate protein remaining % ≤80%)	A (0% ≤ substrate protein remaining % ≤80%)	A (0% ≤ substrate protein remaining % ≤80%)	A (0% ≤ substrate protein remaining % ≤80%)	A (0% ≤ substrate protein remaining % ≤80%)	A (0% ≤ substrate protein remaining % ≤80%)
CC1(C)CCC(CN2C3CC2CN(Cc2ccc4c(c2)C(=O)N(N2CCC(=O)NC2=O)C4=O)C3)=C(c2ccc(Cl)cc2)C1 [GT-06459, 5-((6-((4′-chloro-5,5-dimethyl-3,4,5,6-tetrahydro-[1,1′-biphenyl]-2-yl)methyl)-3,6-diazabicyclo[3.1.1]heptan-3-yl)methyl)-2-(2,4-dioxotetrahydropyrimidin-1(2H)-yl)isoindoline-1,3-dione]	A (0% ≤ substrate protein remaining % ≤80%)	A (0% ≤ substrate protein remaining % ≤80%)	A (0% ≤ substrate protein remaining % ≤80%)	A (0% ≤ substrate protein remaining % ≤80%)	A (0% ≤ substrate protein remaining % ≤80%)	A (0% ≤ substrate protein remaining % ≤80%)
O=C1CCN(N2Cc3cc(CN4CCN(c5cccc(F)c5)CC4)ccc3C2=O)C(=O)N1 [GT-06701, 1-(5-((4-(3-fluorophenyl)piperazin-1-yl)methyl)-1-oxoisoindolin-2-yl)dihydropyrimidine-2,4(1H,3H)-dione]	B (80%< substrate protein remaining % ≤100%)	B (80%< substrate protein remaining % ≤100%)	A (0% ≤ substrate protein remaining % ≤80%)	A (0% ≤ substrate protein remaining % ≤80%)	B (80%< substrate protein remaining % ≤100%)	B (80%< substrate protein remaining % ≤100%)
O=C1CCN(N2C(=O)c3ccc(CN4CCN(c5ccccc5)CC4)cc3C2=O)C(=O)N1 [GT-06719, 2-(2,4-dioxotetrahydropyrimidin-1(2H)-yl)-5-((4-phenylpiperazin-1-yl)methyl)isoindoline-1,3-dione]	B (80%< substrate protein remaining % ≤100%)	B (80%< substrate protein remaining % ≤100%)	B (80%< substrate protein remaining % ≤100%)	B (80%< substrate protein remaining % ≤100%)	B (80%< substrate protein remaining % ≤100%)	A (0% ≤ substrate protein remaining % ≤80%)
COc1ccccc1N1CCN(Cc2ccc3c(c2)C(=O)N(N2CCC(=O)NC2=O)C3=O)CC1 [GT-06720, 2-(2,4-dioxotetrahydropyrimidin-1(2H)-yl)-5-((4-(2-methoxyphenyl)piperazin-1-yl)methyl)isoindoline-1,3-dione]	B (80%< substrate protein remaining % ≤100%)	B (80%< substrate protein remaining % ≤100%)	B (80%< substrate protein remaining % ≤100%)	B (80%< substrate protein remaining % ≤100%)	B (80%< substrate protein remaining % ≤100%)	A (0% ≤ substrate protein remaining % ≤80%)
COc1cccc(N2CCN(Cc3ccc4c(c3)C(=O)N(N3CCC(=O)NC3=O)C4=O)CC2)c1 [GT-06721, 2-(2,4-dioxotetrahydropyrimidin-1(2H)-yl)-5-((4-(3-methoxyphenyl)piperazin-1-yl)methyl)isoindoline-1,3-dione]	A (0% ≤ substrate protein remaining % ≤80%)	A (0% ≤ substrate protein remaining % ≤80%)	B (80%< substrate protein remaining % ≤100%)	B (80%< substrate protein remaining % ≤100%)	B (80%< substrate protein remaining % ≤100%)	A (0% ≤ substrate protein remaining % ≤80%)
O=C1CCN(N2C(=O)c3ccc(CN4CCN(c5cccc(Br)c5)CC4)cc3C2=O)C(=O)N1 [GT-06722, 5-((4-(3-bromophenyl)piperazin-1-yl)methyl)-2-(2,4-dioxotetrahydropyrimidin-1(2H)-yl)isoindoline-1,3-dione]	A (0% ≤ substrate protein remaining % ≤80%)	B (80%< substrate protein remaining % ≤100%)	B (80%< substrate protein remaining % ≤100%)	A (0% ≤ substrate protein remaining % ≤80%)	A (0% ≤ substrate protein remaining % ≤80%)	A (0% ≤ substrate protein remaining % ≤80%)
O=C1CCN(N2C(=O)c3ccc(CN4CCN(c5cccc(F)c5)CC4)cc3C2=O)C(=O)N1 [GT-06724, 2-(2,4-dioxotetrahydropyrimidin-1(2H)-yl)-5-((4-(3-fluorophenyl)piperazin-1-yl)methyl)isoindoline-1,3-dione]	A (0% ≤ substrate protein remaining % ≤80%)	B (80%< substrate protein remaining % ≤100%)	B (80%< substrate protein remaining % ≤100%)	B (80%< substrate protein remaining % ≤100%)	A (0% ≤ substrate protein remaining % ≤80%)	B (80%< substrate protein remaining % ≤100%)
O=C1CCN(N2C(=O)c3ccc(CN4CCN(c5ccc(F)cc5)CC4)cc3C2=O)C(=O)N1 [GT-06725, 2-(2,4-dioxotetrahydropyrimidin-1(2H)-yl)-5-((4-(4-fluorophenyl)piperazin-1-yl)methyl)isoindoline-1,3-dione]	A (0% ≤ substrate protein remaining % ≤80%)	B (80%< substrate protein remaining % ≤100%)	B (80%< substrate protein remaining % ≤100%)	B (80%< substrate protein remaining % ≤100%)	B (80%< substrate protein remaining % ≤100%)	B (80%< substrate protein remaining % ≤100%)
